Data from article PMC7571155, “Design, Synthesis and Biological Investigation of Flavone Derivatives as Potential Multi-Receptor Atypical Antipsychotics” (Molecules, 2020).
Like-named read-outs stand apart in the source and are kept apart here.

Legend:
5-HT2A receptor = 5-HT2A receptor (Rattus norvegicus, UniProt P14842); assay: 5-HT2A receptor radioligand binding (3H-ketanserin); conditions: rat brain cortex, 3H-ketanserin, mean ± SEM of three experiments
D2 receptor = D2 receptor (Rattus norvegicus, UniProt P61169); assay: D2 receptor radioligand binding (3H-spiperone); conditions: 3H-spiperone, mean ± SEM of three experiments
D2L receptor = molecular target: T1, D2L receptor (Homo sapiens, UniProt P14416); assay: Intrinsic activity, FLIPR calcium assay, HEK293/D2L; assay type: cell-based
T1 construct: expressed in transfected cells; host or cells: HEK293

[1] = read-out: Receptor Affinity Ki ± SEM 5-HT2A
[2] = read-out: Receptor Affinity Ki ± SEM D2, rat striatum
[3] = Receptor Affinity Ki ± SEM 5-HT2A
[4] = Receptor Affinity Ki ± SEM D2, rat striatum

Sequence of 5-HT2A receptor (P14842 whole entry): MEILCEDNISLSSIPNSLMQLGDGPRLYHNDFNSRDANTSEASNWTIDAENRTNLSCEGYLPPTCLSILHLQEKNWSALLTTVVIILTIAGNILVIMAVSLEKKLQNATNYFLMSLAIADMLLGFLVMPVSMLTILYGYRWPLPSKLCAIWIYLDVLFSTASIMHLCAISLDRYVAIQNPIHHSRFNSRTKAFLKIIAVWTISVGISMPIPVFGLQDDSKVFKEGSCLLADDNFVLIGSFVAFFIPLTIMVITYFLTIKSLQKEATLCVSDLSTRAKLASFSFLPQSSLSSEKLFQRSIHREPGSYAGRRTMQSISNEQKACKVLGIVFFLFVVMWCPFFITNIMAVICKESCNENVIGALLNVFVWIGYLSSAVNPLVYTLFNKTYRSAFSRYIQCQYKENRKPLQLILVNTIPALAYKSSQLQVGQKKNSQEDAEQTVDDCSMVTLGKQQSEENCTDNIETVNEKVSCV
T1 sequence (P14416 whole entry): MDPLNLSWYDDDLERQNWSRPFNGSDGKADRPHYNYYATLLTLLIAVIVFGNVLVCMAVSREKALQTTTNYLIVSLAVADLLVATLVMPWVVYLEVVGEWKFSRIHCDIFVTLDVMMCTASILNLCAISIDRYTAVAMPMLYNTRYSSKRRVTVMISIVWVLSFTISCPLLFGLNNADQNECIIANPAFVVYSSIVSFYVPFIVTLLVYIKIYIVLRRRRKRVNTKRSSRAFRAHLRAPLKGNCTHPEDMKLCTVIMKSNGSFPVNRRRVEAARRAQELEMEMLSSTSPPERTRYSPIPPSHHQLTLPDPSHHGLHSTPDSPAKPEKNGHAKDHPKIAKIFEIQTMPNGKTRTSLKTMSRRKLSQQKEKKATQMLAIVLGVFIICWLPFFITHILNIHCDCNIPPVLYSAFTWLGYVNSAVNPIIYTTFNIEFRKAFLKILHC
Sequence of D2 receptor (P61169 whole entry): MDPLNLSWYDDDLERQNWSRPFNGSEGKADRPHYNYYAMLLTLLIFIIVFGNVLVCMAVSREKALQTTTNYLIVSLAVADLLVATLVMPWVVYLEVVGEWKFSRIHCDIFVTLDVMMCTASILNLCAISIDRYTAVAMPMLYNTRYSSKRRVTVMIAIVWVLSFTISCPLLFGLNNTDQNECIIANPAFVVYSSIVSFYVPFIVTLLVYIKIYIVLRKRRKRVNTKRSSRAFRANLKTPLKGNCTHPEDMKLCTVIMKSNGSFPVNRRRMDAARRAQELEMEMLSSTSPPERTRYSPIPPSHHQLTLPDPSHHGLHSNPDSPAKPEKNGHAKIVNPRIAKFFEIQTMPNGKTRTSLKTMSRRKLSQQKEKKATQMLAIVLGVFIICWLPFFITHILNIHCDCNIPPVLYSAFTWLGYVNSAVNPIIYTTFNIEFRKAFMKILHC

Molecule	melting point [°C]	Ki (5-HT2A receptor; [3]) [nM]	Ki (D2 receptor; [4]) [nM]	further results
7-(4-(4-(6-Fluorobenzo[d]isoxazol-3-yl)piperidin-1-yl)butoxy)-5-methylchroman-4-one [Compound 13b]				Ki (5-HT2A receptor; [1]): 10.5 ± 1.3 nM; Ki (D2 receptor; [2]): 28.9 ± 3.4 nM
7-(4-(4-(6-Fluorobenzo[d]isoxazol-3-yl)piperidin-1-yl)butoxy)-8-methylchroman-4-one [Compound 13d]				Ki (5-HT2A receptor; [1]): 13.7 ± 1.9 nM; Ki (D2 receptor; [2]): 22.9 ± 3.1 nM
CC1(C)CC(=O)c2ccc(OCCCCN3CCN(c4ccccc4)CC3)cc2O1 [Compound 6a, 2,2-Dimethyl-7-(4-(4-phenylpiperazin-1-yl)butoxy) chroman-4-one]	131 to 133	89.8 ± 11.3	553 ± 68.7	
CC1(C)CC(=O)c2ccc(OCCCCN3CCN(c4ccccc4F)CC3)cc2O1 [Compound 6b, 7-(4-(4-(2-Fluorophenyl)piperazin-1-yl)butoxy)-2,2-dimethylchroman-4-one]	135 to 137	72.5 ± 8.4	777 ± 84.7	
CC1(C)CC(=O)c2ccc(OCCCCN3CCN(c4cccc(C(F)(F)F)c4)CC3)cc2O1 [Compound 6c, 2,2-Dimethyl-7-(4-(4-(3-(trifluoromethyl)phenyl)piperazin-1-yl)butoxy) chroman-4-one]	139 to 140	147 ± 16.9	1130 ± 108	
COc1ccccc1N1CCN(CCCCOc2ccc3c(c2)OC(C)(C)CC3=O)CC1 [Compound 6d, 7-(4-(4-(2-Methoxyphenyl)piperazin-1-yl)butoxy)-2,2-dimethylchroman-4-one]	128 to 130	86.8 ± 5.6	2350 ± 317	
CC1(C)CC(=O)c2ccc(OCCCCN3CCN(c4ccccn4)CC3)cc2O1 [Compound 6e, 2,2-Dimethyl-7-(4-(4-(pyridin-2-yl)piperazin-1-yl)butoxy) chroman-4-one]	127 to 129	722 ± 64.9	4590 ± 510	
CC1(C)CC(=O)c2ccc(OCCCCN3CCN(c4ncccn4)CC3)cc2O1 [Compound 6f, 2,2-Dimethyl-7-(4-(4-(pyrimidin-2-yl)piperazin-1-yl)butoxy) chroman-4-one]	128 to 131	1140 ± 152	> 10000	
CC1(C)CC(=O)c2ccc(OCCCCN3CCN(Cc4ccc5c(c4)OCO5)CC3)cc2O1 [Compound 6g, 7-(4-(4-(Benzo[d] [1, 3]dioxol-5-ylmethyl)piperazin-1-yl)butoxy)-2,2-dimethylchroman-4-one]	112 to 114	380 ± 39.1	1140 ± 140	
CC1(C)CC(=O)c2ccc(OCCCCN3CCN(c4cccc5sccc45)CC3)cc2O1 [Compound 6h, 7-(4-(4-(Benzo[b]thiophen-4-yl)piperazin-1-yl)butoxy)-2,2-dimethylchroman-4-one]		55.2 ± 4.9	43.1 ± 5.7	
CC1(C)CC(=O)c2ccc(OCCCCN3CCN(c4nsc5ccccc45)CC3)cc2O1 [Compound 6i, 7-(4-(4-(Benzo[d]isothiazol-3-yl)piperazin-1-yl)butoxy)-2,2-dimethylchroman-4-one]	119 to 120	19.5 ± 2.2	26.2 ± 2.7	
COc1ccccc1N1CCN(CCCOc2ccc3c(c2)OC(C)(C)CC3=O)CC1 [Compound 6k, 7-(3-(4-(2-Methoxyphenyl)piperazin-1-yl)propoxy)-2,2-dimethylchroman-4-one]	103 to 105	33.1 ± 4.5	3160 ± 466	
CC1(C)CC(=O)c2ccc(OCCCN3CCC(c4noc5cc(F)ccc45)CC3)cc2O1 [Compound 6l, 7-(3-(4-(6-Fluorobenzo[d]isoxazol-3-yl)piperidin-1-yl)propoxy)-2,2-dimethylchroman-4-one]	116 to 118	6.7 ± 0.7	18.6 ± 2.3	
COc1ccccc1N1CCN(CCCOc2ccc3c(c2)OC2(CCCC2)CC3=O)CC1 [Compound 9a, 7-(3-(4-(2-Methoxyphenyl)piperazin-1-yl)propoxy) spiro[chromane-2,1′-cyclopentan]-4-one]	128 to 130	72 ± 6.8	3850 ± 328	
COc1ccccc1N1CCN(CCCCOc2ccc3c(c2)OC2(CCCC2)CC3=O)CC1 [Compound 9b, 7-(4-(4-(2-Methoxyphenyl)piperazin-1-yl)butoxy) spiro[chromane-2,1′-cyclopentan]-4-one]	96 to 98	61.7 ± 8.6	3790 ± 409	
O=C1CC2(CCCC2)Oc2cc(OCCCN3CCC(c4noc5cc(F)ccc45)CC3)ccc21 [Compound 9c, 7-(3-(4-(6-Fluorobenzo[d]isoxazol-3-yl)piperidin-1-yl)propoxy)spiro[chromane-2,1′-cyclopentan]-4-one]	91 to 93	8.3 ± 0.9	18.9 ± 2.1	
COc1ccccc1N1CCN(CCCOc2ccc3c(c2)OC2(CCCCC2)CC3=O)CC1 [Compound 9e, 7-(3-(4-(2-Methoxyphenyl)piperazin-1-yl)propoxy)spiro[chromane-2,1′-cyclohexan]-4-one]	105 to 107	93.5 ± 7.9	2050 ± 229	
O=C1CC2(CCCCC2)Oc2cc(OCCCN3CCN(c4ccccc4C(F)(F)F)CC3)ccc21 [Compound 9f, 7-(3-(4-(2-(Trifluoromethyl)phenyl)piperazin-1-yl)propoxy)spiro[chromane-2,1′-cyclohexan]-4-one]	138 to 140	76.7 ± 9.4	915 ± 90.3	
Cc1cccc(N2CCN(CCCCOc3ccc4c(c3)OC3(CCCCC3)CC4=O)CC2)c1C [Compound 9i, 7-(4-(4-(2,3-Dimethylphenyl)piperazin-1-yl)butoxy)spiro[chromane-2,1′-cyclohexan]-4-one]	138 to 140	67.5 ± 7.4	154 ± 19.6	
O=C1CC2(CCCCC2)Oc2cc(OCCCCN3CCN(c4cccc(Cl)c4Cl)CC3)ccc21 [Compound 9j, 7-(4-(4-(2,3-Dichlorophenyl)piperazin-1-yl)butoxy)spiro[chromane-2,1′-cyclohexan]-4-one]	119 to 121	35.8 ± 5.2	81.7 ± 9.7	
O=C1CC2(CCCCC2)Oc2cc(OCCCCN3CCC(c4nsc5ccccc45)CC3)ccc21 [Compound 9k, 7-(4-(4-(Benzo[d]isothiazol-3-yl)piperidin-1-yl)butoxy)spiro[chromane-2,1′-cyclohexan]-4-one]	129 to 130	75.6 ± 8.6	35.1 ± 4.7	
O=C1CCOc2cc(OCCCCN3CCC(c4noc5cc(F)ccc45)CC3)ccc21 [Compound 13a, 7-(4-(4-(6-Fluorobenzo[d]isoxazol-3-yl)piperidin-1-yl)butoxy)chroman-4-one]		9.6 ± 0.8	22.5 ± 2.6	
Cc1cc2c(cc1OCCCCN1CCC(c3noc4cc(F)ccc34)CC1)OCCC2=O [Compound 13c, 7-(4-(4-(6-Fluorobenzo[d]isoxazol-3-yl)piperidin-1-yl)butoxy)-6-methylchroman-4-one]	91 to 93	15.9 ± 2.3	25.8 ± 3.9	
CC1CC(=O)c2ccc(OCCCCN3CCC(c4noc5cc(F)ccc45)CC3)cc2O1 (centres unmarked) [Compound 16a, 7-(4-(4-(6-Fluorobenzo[d]isoxazol-3-yl)piperidin-1-yl)butoxy)-2-methylchroman-4–one]	95 to 97	7.9 ± 0.5	19.7 ± 2.7	
CC1CC(=O)c2ccc(OCCCCN3CCC(c4noc5cc(F)ccc45)CC3)c(Cl)c2O1 (centres unmarked) [Compound 16b, 8-Chloro-7-(4-(4-(6-fluorobenzo[d]isoxazol-3-yl)piperidin-1-yl)butoxy)-2-methylchroman-4-one]	99 to 101	8.1 ± 1.1	21.4 ± 2.4	
CC1Oc2cc(OCCCCN3CCC(c4noc5cc(F)ccc45)CC3)ccc2C(=O)C1C (centres unmarked) [Compound 21, 7-(4-(4-(6-fluorobenzo[d]isoxazol-3-yl)piperidin-1-yl)butoxy)-2,3-dimethylchroman-4-one]	82 to 84	2.4 ± 1.9	28.4 ± 3.2	
CN1CCc2cc(Cl)c(O)cc2[C@@H](c2ccccc2)C1 [SCH23390]				IC50 (D2L receptor; D2L, antagonist mode, read-out: IC50): 31.6 nM; inhibition at 10 µM (D2L receptor; HEK293, read-out: Inhibition (10 μM, %), D2L, antagonist mode, 10 μM, n = 3): 99.1 ± 3.2%
NCCc1ccc(O)c(O)c1 [dopamine]				Activation (10 μM, %) (D2L receptor; D2L, agonist mode, 10 μM, n = 3): 101.3 ± 5.3%
